Measurements from patent publication US20180070870A1, “Autonomous Sweat Extraction and Analysis Using a Fully-Integrated Wearable Platform” (The Board of Trustees of the Leland Stanford Junior …, priority 2016, published 2018).

Tested on: sweat secretion
Assay: Induced sweat rate profiles stimulated by cholinergic agonist hydrogels under iontophoresis, measured with a sweat rate sensor
Format: in vivo, human
Details: iontophoresis 2 mA for 5 minutes
Method: Bars represent values for response latency (time in seconds to onset of secretion from start of iontophoresis), response duration (total time in minutes of secretion above baseline, measurements stopped at 60 minutes), peak secretory rate in response to stimulation, time to reach peak secretory rate and time spent secreting at the peak rate. […] By modulating the formulation of the compounds that are loaded into the iontophoresis hydrogel, we can achieve different patterns of sweat secretion rate. We characterized the induced sweat rate profiles as stimulated by three different cholinergic agonist hydrogels (acetylcholine, methacholine and pilocarpine) each at two different concentrations. For this characterization step, 2 mA of current over duration of 5 minutes was applied using a pair of ring-shaped electrodes (WR Medical Electronics Co., MN, area: 4.3 cm2), with the sweat rate sensor (Q-sweat, WR Medical Electronics Co., MN) mounted on the positive electrode, sealing the stimulated area. […] This pattern is suitable for the case where periodic sweat sampling with short intervals is required. […] To retrieve the induced sweat rate information, immediately after each stimulation step, the stimulated area was wiped dry and sealed with the sweat rate sensor. After each characterization step, the same pair of hydrogels were reused for the subsequent stimulation. […]

`CC(=O)OC(C)C[N+](C)(C)C` (centres unmarked) [methacholine] was tested, and the “share of the secretion period spent at about the peak rate” value was “about half”.

In the case of `CC[C@@H]1C(=O)OC[C@@H]1Cc1cncn1C` [pilocarpine], the “share of the secretion period spent at about the peak rate” value is reported as “about half”.
